Results: US20210231538A1, “DISSOCIATION OF BIOLOGICAL SAMPLES” (priority 2018, published 2021)
“Also recorded” adds a separate entry of the source. Structures can show the parent of a compound that is named as a salt. Where two headings read alike, the source gives them in different places.

What was measured:
[1] = system: Trimethylglycine:Trifluoroacetamide fixed mouse liver single-cells; test: Lysis of fixed cells by solvents and aqueous solutions; type: cell-based; conditions: for Cell lysis effect (4 day treatment): nuclei: whether nuclei are lysed
Source text: (§1) This is important for example if studying the RNA component of the cytoplasm, nuclei or the entire cell contents as a selection of the source of the RNA can be made based on the solvent used.

[2] = system: DES fixed cell cytoplasm and nuclei; test: Solubilisation of cytoplasm versus nuclei of DES fixed cells; type: cell-based; conditions: DMSO at 25% or more final concentration
Source text: as §1
Such intact nuclei can be sorted, pelleted selected, and their contents analysed either in entire nuclei by using, for example, labeled antibodies specific to nuclear epitopes such as Ki-67 or, by using fluorescent nucleic acid probes for detecting RNA and DNA. Alternatively the purified nuclei can be lysed and their contents including proteins, DNA and RNA released for further analysis such as genomic DNA sequencing, protein-protein interactions, intron splicing, CHIP analysis, chromosome analysis and/or RNA sequencing.

[3] = 500 fixed, dissociated mouse liver cells per well, bromophenol blue stained, 4 day treatment
[4] = organic solvents in the range of 80-100% final concentration

## 10 mg/ml BSA (acetylated): BSA (acetylated)
[1]; [3]
  Cell lysis effect (4 day treatment): No lysis

## C[C@H](CCC(=O)NCCC[N+](C)(C)CCCS(=O)(=O)[O-])[C@H]1CC[C@H]2[C@@H]3[C@H](O)C[C@@H]4C[C@H](O)CC[C@]4(C)[C@H]3C[C@H](O)[C@]12C [1% CHAPS, CHAPS]
[1]; [3]
  Cell lysis effect (4 day treatment): >80% cell lysis

## CC(O)(C(F)(F)F)C(F)(F)F [1,1,1,3,3,3-Hexafluoro-2-methyl-2-propanol]
[1]; [4]
  lysing of Trimethylglycine:Trifluoroacetamide (1:2 mol:mol) fixed samples: particularly effective at effectuating cell lysis

## OC(c1ccccc1)(C(F)(F)F)C(F)(F)F [1,1,1,3,3,3-Hexafluoro-2-phenyl-2-propanol]
[1]; [4]
  lysing of Trimethylglycine:Trifluoroacetamide (1:2 mol:mol) fixed samples: particularly effective at effectuating cell lysis

## [Cl-].[Li+] [1M LiCl, LiCl]
[1]; [3]
  Cell lysis effect (4 day treatment): No lysis

## CCCCCCCCCCCCOS(=O)(=O)[O-].[Na+] [2% SDS, Sodium dodecyl sulphate]
[1]; 500 fixed, dissociated mouse liver cells per well, bromophenol blue stained, 4 day treatment, listed as 0.1% SDS, sulphate
  Cell lysis effect (4 day treatment): >15% cell lysis
[1]; 500 fixed, dissociated mouse liver cells per well, bromophenol blue stained, 4 day treatment, sulphate
  Cell lysis effect (4 day treatment): Complete Lysis

## N#CS.N=C(N)N [4M Guanidine thiocyanate, Guanidine thiocyanate]
[1]
  Cell lysis effect (4 day treatment): >50% cell lysis

## N=C(N)N [5M Guanidine HCl, Guanidine HCl]
[1]; [3]
  Cell lysis effect (4 day treatment): >50% cell lysis

## [I-].[K+] [5M Potassium iodide, Potassium iodide]
[1]; [3]
  Cell lysis effect (4 day treatment): >50% cell lysis
[1]; 500 fixed, dissociated mouse liver cells per well, bromophenol blue stained, 4 day treatment, listed as 1M Potassium iodide
  Cell lysis effect (4 day treatment): No lysis
[1]; [4]
  lysing of Trimethylglycine:Trifluoroacetamide (1:2 mol:mol) fixed samples: efficient at lysing

## [O-][Cl+3]([O-])([O-])O [5M Sodium perchlorate, Sodium perchlorate]
[1]; [3]
  Cell lysis effect (4 day treatment): 100% cell lysis
[1]; [4]
  lysing of Trimethylglycine:Trifluoroacetamide (1:2 mol:mol) fixed samples: efficient at lysing

## CCCC[N+](CCCC)(CCCC)CCCC.[Cl-] [5M Tetrabutyl ammonium chloride, Tetrabutyl ammonium chloride]
[1]
  Cell lysis effect (4 day treatment): No lysis

## C[N+](C)(C)C.[Cl-] [5M Tetramethyl ammonium chloride, Tetramethyl ammonium chloride]
[1]
  Cell lysis effect (4 day treatment): No lysis

## NC(N)=O [8M Urea, Urea]
[1]; [3]
  Cell lysis effect (4 day treatment): > 95%
[1]; 4 day treatment
  Cell lysis effect (4 day treatment): nuclei: not nuclei

## CN1CCCC1=O [50% N-methyl pyrrolidone, N-methyl pyrrolidone]
[1]; [3]
  Cell lysis effect (4 day treatment): No lysis

## OC(C(F)(F)F)C(F)(F)F [100% 1,1,1,3,3,3-Hexafluoro-2-propanol, 1,1,1,3,3,3-Hexafluoro-2-propanol]
[2]
  solubilisation of fixed cell cytoplasm and nuclei: very efficiently solubilises both the cytoplasm and nuclei
[1]; [3]
  Cell lysis effect (4 day treatment): Complete lysis
[1]; 500 fixed, dissociated mouse liver cells per well, bromophenol blue stained, 4 day treatment, listed as 10% 1,1,1,3,3,3-Hexafluoro-2-propanol
  Cell lysis effect (4 day treatment): No lysis
[1]; 500 fixed, dissociated mouse liver cells per well, bromophenol blue stained, 4 day treatment, listed as 50% 1,1,1,3,3,3-Hexafluoro-2-propanol
  Cell lysis effect (4 day treatment): >40% cell lysis
[1]; 500 fixed, dissociated mouse liver cells per well, bromophenol blue stained, 4 day treatment, listed as 90% 1,1,1,3,3,3-Hexafluoro-2-propanol
  Cell lysis effect (4 day treatment): Complete lysis
[1]; [4]
  lysing of Trimethylglycine:Trifluoroacetamide (1:2 mol:mol) fixed samples: particularly effective at effectuating cell lysis
[1]; 4 day treatment
  Cell lysis effect (4 day treatment): nuclei: including nuclei

## CCn1ccnc1 [100% 1-Ethylimidazole, 1-Ethylimidazole]
[1]; [3]
  Cell lysis effect (4 day treatment): No lysis

## Cn1ccnc1 [100% 1-Methylimidazole, 1-Methylimidazole]
[1]; [3]
  Cell lysis effect (4 day treatment): No lysis

## CC(C)=O [100% Acetone, Acetone]
[1]; [3]
  Cell lysis effect (4 day treatment): No lysis

## OCCS [100% Beta-mercaptoethanol, Beta-mercaptoethanol]
[1]; [3]
  Cell lysis effect (4 day treatment): 100% cell lysis
[1]; 500 fixed, dissociated mouse liver cells per well, bromophenol blue stained, 4 day treatment, listed as 10% Beta-mercaptoethanol
  Cell lysis effect (4 day treatment): No lysis
[1]; 500 fixed, dissociated mouse liver cells per well, bromophenol blue stained, 4 day treatment, listed as 20% Beta-mercaptoethanol
  Cell lysis effect (4 day treatment): No lysis
[1]; 500 fixed, dissociated mouse liver cells per well, bromophenol blue stained, 4 day treatment, listed as 40% Beta-mercaptoethanol
  Cell lysis effect (4 day treatment): No lysis
[1]; 500 fixed, dissociated mouse liver cells per well, bromophenol blue stained, 4 day treatment, listed as 60% Beta-mercaptoethanol
  Cell lysis effect (4 day treatment): >50% cell lysis
[1]; 500 fixed, dissociated mouse liver cells per well, bromophenol blue stained, 4 day treatment, listed as 80% Beta-mercaptoethanol
  Cell lysis effect (4 day treatment): >80% cell lysis
[1]; [4]
  lysing of Trimethylglycine:Trifluoroacetamide (1:2 mol:mol) fixed samples: particularly effective at effectuating cell lysis

## C[S+](C)[O-] [100% DMSO, Dimethylsulphoxide]
[2]
  solubilisation of fixed cell cytoplasm and nuclei: very efficiently solubilises the Trimethylglycine:Trifluoroacetamide fixed cell's cytoplasm but not the nuclei; also recorded: particularly efficient at the solubilization and removal of the cell membrane and cytoplasm but not the nucleus
[1]; [3]
  Cell lysis effect (4 day treatment): >70% cell lysis
[1]; [4]
  lysing of Trimethylglycine:Trifluoroacetamide (1:2 mol:mol) fixed samples: particularly effective at effectuating cell lysis

## CCO [100% Ethanol, Ethanol]
[1]; [3]
  Cell lysis effect (4 day treatment): No lysis

## NC=O [100% Formamide, Formamide]
[1]; [3]
  Cell lysis effect (4 day treatment): No lysis

## O=CN1CCOCC1 [100% Formyl morpholine, Formyl morpholine]
[1]; [3]
  Cell lysis effect (4 day treatment): No lysis

## OCC(O)CO [100% Glycerol, Glycerol]
[1]; [3]
  Cell lysis effect (4 day treatment): No lysis

## CCN1CCCC1=O [100% N-ethyl pyrrolidone, N-ethyl pyrrolidone]
[1]; [3]
  Cell lysis effect (4 day treatment): No lysis

## CCN(CC)C(=O)C(F)(F)F [N,N-Diethyl-2,2,2-Trifluoroacetamide]
[1]; [3]
  Cell lysis effect (4 day treatment): No lysis

## CN(C)C(=O)C(F)(F)F [N,N-Methyl-2,2,2-Trifluoroacetamide]
[1]; [3]
  Cell lysis effect (4 day treatment): No lysis

## NC(=O)C(F)(F)C(F)F [Saturated Tetrafluoropropionamide, Tetrafluoropropionamide]
[1]; [3]
  Cell lysis effect (4 day treatment): No lysis

## NC(N)=S [Saturated Thiourea, Thiourea]
[1]; [3]
  Cell lysis effect (4 day treatment): 100% cell lysis

## NC(=O)C(F)(F)F [Saturated Trifluoroacteamide, Trifluoroacteamide]
[1]; [3]
  Cell lysis effect (4 day treatment): No lysis

## Oc1ccccc1 [phenol]
[1]
  lysing of Trimethylglycine:Trifluoroacetamide (1:2 mol:mol) fixed samples: particularly effective at effectuating cell lysis

## IGEPAL-CA630 [50% IGEPAL-CA630]
[1]; [3]
  Cell lysis effect (4 day treatment): 100% cell lysis
[1]; 500 fixed, dissociated mouse liver cells per well, bromophenol blue stained, 4 day treatment, listed as 10% IGEPAL-CA630
  Cell lysis effect (4 day treatment): No lysis
[1]; 500 fixed, dissociated mouse liver cells per well, bromophenol blue stained, 4 day treatment, listed as 30% IGEPAL-CA630
  Cell lysis effect (4 day treatment): No lysis

## NP40 [1% NP40]
[1]; [3]
  Cell lysis effect (4 day treatment): >50% cell lysis

## PEG200 [100% PEG200]
[1]; [3]
  Cell lysis effect (4 day treatment): No lysis

## Tetramethyl ammonium oxide [50% Tetramethyl ammonium oxide]
[1]; [3]
  Cell lysis effect (4 day treatment): 100% cell lysis

## Triton X100 [1% Triton X100]
[1]; [3]
  Cell lysis effect (4 day treatment): >60% cell lysis

## Tween-20 [1% Tween-20]
[1]; [3]
  Cell lysis effect (4 day treatment): >60% cell lysis
